Where no end group is shown, it is not given here.
How the values were obtained:
Notch2NRR = assay: Spot phage ELISA, Notch2NRR; type: binding, human; details: for S/N: spot phage ELISA on Notch2NRR, signal-to-noise ratio of phage-displayed DCP clone; for ELISA: spot phage ELISA signal of phage-displayed DCP clone on Notch2NRR
PCSK9ΔCRD (PCSK9dCRD) = type: binding, human; details: for S/N: ratio of signal for target protein over BSA background; for ELISA: spot phage ELISA signal, DCP displayed on M13 p8
Fz7CRD-Fc = type: binding; details: for S/N: ratio of signal for target protein over BSA background; for ELISA: spot phage ELISA signal, DCP displayed on M13 p8

Row | Sequence | S/N (Notch2NRR) | ELISA (Notch2NRR) | S/N (PCSK9ΔCRD (PCSK9dCRD)) | ELISA (PCSK9ΔCRD (PCSK9dCRD)) | S/N (Fz7CRD-Fc) | ELISA (Fz7CRD-Fc)
1 | AFDCLGQCGRCDFHKLQCVWSNRNSLYCNSSCTR (disulfide (positions not given here)) [AVR9 1] | 2.0 | 3.42 |  |  |  | 
2 | AFDCLGQCGRCDFHKLQCVNIEYYRDWDHYQYCNSSCTR (also: bicyclic or more (positions not given here)) [PCSK9dCRD AVR9 82] |  |  | 27.6 | 2.13 |  | 
3 | AFDCLGQCGRCDFHKLQCVWQTWSAYLYCNSSCTR (also: bicyclic or more (positions not given here)) [PCSK9dCRD AVR9 80] |  |  | 2.9 | 2.10 |  | 
4 | GPTQSHYGQCGGAGYWGRWICSGTTCQPLPQSKSQCLPGAS (disulfide (positions not given here)) [CBD 1] | 38.2 | 3.79 |  |  |  | 
5 | AFDCLGQCGRCDFHKLQCVYRSWAHFQYCNSSCTR (also: bicyclic or more (positions not given here)) [PCSK9dCRD AVR9 11] |  |  | 18.5 | 2.52 |  | 
6 | GCTLMRTRCKQDSDCLAGCVCEHIYWCG (disulfide (positions not given here)) [N2N-EET-n19] | 12.8 | 3.16 |  |  |  | 
7 | AFDCLGQCGRCDFHKLQCIWSNRNYPYCNSSCTR (disulfide (positions not given here)) [AVR9 3] | 47.3 | 3.31 |  |  |  | 
8 | AFDCLGQCGRCDFHKLQCVGKFRSFQDYQYCNSSCTR (also: bicyclic or more (positions not given here)) [PCSK9dCRD AVR9 18] |  |  | 28.6 | 2.52 |  | 
9 | GPTQSHYGQCGGFGYWGMRHCSGTTCQWQHLPSQ CLPGAS (disulfide) [CBD 3] | 36.6 | 3.00 |  |  |  | 
10 | AFDCLGQCGRCDFHKLQCVWTSWGDYIKYGAYCNSSCTR (also: bicyclic or more (positions not given here)) [PCSK9dCRD AVR9 94] |  |  | 10.9 | 2.09 |  | 
11 | AFDCLGQCGRCDFHKLQCVYTSWQHYQYCNSSCTR (also: bicyclic or more (positions not given here)) [PCSK9dCRD AVR9 58] |  |  | 35.3 | 2.67 |  | 
12 | GPTQSVGGNCGGIGYSGPTVCASGTTCQVLSPNFSICLPGAS (also: bicyclic or more (positions not given here)) [PCSK9dCRD CBD 49] |  |  | 37.1 | 2.38 |  | 
13 | GCGWLPELKLWCKQDSDCLAGCVCEDMIDCG (also: bicyclic or more (positions not given here)) [Fz7CRD-Fc EET I-II 38] |  |  |  |  | 15.1 | 1.32
14 | GCTLYMYLCKQDSDCLAGWMFHHCG [Fz7CRD-Fc EET I-II 55] |  |  |  |  | 29.3 | 2.81
15 | GPTQSAGGWCGGIGYSGPTVCASGTTCQVLTPMESICLPGAS (also: bicyclic or more (positions not given here)) [Fz7CRD-Fc CBD 29] |  |  |  |  | 5.7 | 0.36
16 | GPTQSVYGYCGGIGYSGPTVCASGTTCQVLFPGHSFCLPGAS (also: bicyclic or more (positions not given here)) [Fz7CRD-Fc CBD 23] |  |  |  |  | 20.9 | 2.78
17 | AFDCLGQCGRCDFHKLQCVWSNRNSPYCNSSCTR (disulfide (positions not given here)) [AVR9 2] | 44.7 | 3.32 |  |  |  | 
18 | GCVHVIREWWCKQDSDSSWFVCGPNGFCG [Fz7CRD-Fc EET I-II 17] |  |  |  |  | 26.4 | 2.69
19 | AFDCLGQCGRCDFHKLQCVFRSWQHYMYCNSSCTR (also: bicyclic or more (positions not given here)) [PCSK9dCRD AVR9 39] |  |  | 9.1 | 2.46 |  | 
20 | AFDCLGQCGRCDFHKLQCVYSSWAHYQYCNSSCTR (also: bicyclic or more (positions not given here)) [PCSK9dCRD AVR9 57] |  |  | 33.9 | 2.57 |  | 
21 | AFDCLGQCGRCDFHKLQCVYKDWGHYLYCNSSCTR (also: bicyclic or more (positions not given here)) [PCSK9dCRD AVR9 34] |  |  | 24.0 | 1.80 |  | 
22 | GCNGQRRPWGRWCKQDSDCLAGCVCGPNGFCG (disulfide (positions not given here)) [N2N-EET-33-P1] | 11.9 | 2.39 |  |  |  | 
23 | GPTQSIWGECGGIGYSGPTVCASGTTCQVLTPFYSFCLPGAS (also: bicyclic or more (positions not given here)) [Fz7CRD-Fc CBD 14] |  |  |  |  | 15.7 | 1.18
24 | AFDCLGQCGRCDFHKLQCVYQSWDHYQYCNSSCTR (also: bicyclic or more (positions not given here)) [PCSK9dCRD AVR9 14] |  |  | 30.5 | 2.41 |  | 
25 | AFDCLGQCGRCDFHKLQCVYKTWQDYQYCNSSCTR (also: bicyclic or more (positions not given here)) [PCSK9dCRD AVR9 53] |  |  | 36.1 | 2.49 |  | 

Row | Sequence | S/N (Notch2NRR) | ELISA (Notch2NRR) | S/N (PCSK9ΔCRD (PCSK9dCRD)) | ELISA (PCSK9ΔCRD (PCSK9dCRD)) | S/N (Fz7CRD-Fc) | ELISA (Fz7CRD-Fc)
26 | GCGWLPELKLWCKQDSDCLAGCVCEDMIDCG (also: bicyclic or more (positions not given here)) [Fz7CRD-Fc EET I-II 42] |  |  |  |  | 36.2 | 2.79
27 | GPTQSHYGQCGGQGYWGMRHCSGTTCQWGAKGPSQCLPGAS (disulfide (positions not given here)) [CBD 4] | 33.1 | 3.68 |  |  |  | 
28 | GPTQSHYGQCGGTGYWGMRNCSGTTCQRFAPQNSQCLPGAS (disulfide (positions not given here)) [CBD 5] | 47.2 | 3.59 |  |  |  | 
29 | GPTQSMWGECGGIGYSGPTVCASGTTCQVLSPFYSFCLPGAS (also: bicyclic or more (positions not given here)) [Fz7CRD-Fc CBD 56] |  |  |  |  | 3.7 | 0.27
30 | GPTQSLWGECGGIGYSGPTVCASGTTCQVLSPEYSFCLPGAS (also: bicyclic or more (positions not given here)) [Fz7CRD-Fc CBD 18] |  |  |  |  | 16.4 | 1.75
31 | GPTQSVGGVCGGIGYSGPTVCASGTTCQVLSPKTSICLPGAS (also: bicyclic or more (positions not given here)) [PCSK9dCRD CBD 40] |  |  | 27.5 | 2.39 |  | 
32 | AFDCLGQCGRCDFHKLQCVWSNRHSPYCNSSCTR (disulfide (positions not given here)) [AVR9 4] | 39.3 | 3.31 |  |  |  | 
33 | GPTQSWFGQCGGIGYSGPTVCASGTTCQVLVPDMSFCLPGAS (also: bicyclic or more (positions not given here)) [Fz7CRD-Fc CBD 87] |  |  |  |  | 32.0 | 2.66
34 | GPTQSAFGECGGIGYSGPTVCASGTTCQVLSPMFSFCLPGAS (also: bicyclic or more (positions not given here)) [Fz7CRD-Fc CBD 57] |  |  |  |  | 28.7 | 2.41
35 | AFDCLGQCGRCDFHKLQCVPYSWTYKQYCNSSCTR (disulfide (positions not given here)) [AVR9 9] | 35.7 | 2.57 |  |  |  | 
36 | AFDCLGQCGRCDFHKLQCVSSNRNTPYCNSSCTR (disulfide (positions not given here)) [AVR9 5] | 45.8 | 3.31 |  |  |  | 
37 | AFDCLGQCGRCDFHKLQCVYQDWAHYVYCNSSCTR (also: bicyclic or more (positions not given here)) [PCSK9dCRD AVR9 44] |  |  | 27.7 | 2.19 |  | 
38 | GPTQSHYGQCGGEGYWGRWICSGTTCQPYNTHFSQCLPGAS (disulfide (positions not given here)) [CBD 2] | 28.5 | 3.05 |  |  |  | 
39 | AFDCLGQCGRCDFHKLQCVWGNRNSSYCNSSCTR (disulfide (positions not given here)) [AVR9 6] | 35.2 | 3.28 |  |  |  | 
40 | GPTQSKYGVCGGIGYSGPTVCASGTTCQVLYPGYSLCLPGAS (also: bicyclic or more (positions not given here)) [Fz7CRD-Fc CBD 72] |  |  |  |  | 37.9 | 2.80
41 | AFDCLGQCGRCDFHKLQCVVGWASMRNYCNSSCTR (disulfide (positions not given here)) [AVR9 8] | 42.0 | 3.14 |  |  |  | 
42 | GCGWWFKQWFCKQDSDCLAGCVCGPNGFCG (also: bicyclic or more (positions not given here)) [Fz7CRD-Fc EET I-II 19] |  |  |  |  | 3.8 | 1.83
43 | GPTQSMFGECGGIGYSGPTVCASGTTCQVLSPFYSFCLPGAS (also: bicyclic or more (positions not given here)) [Fz7CRD-Fc CBD 47] |  |  |  |  | 30.4 | 2.59
44 | AFDCLGQCGRCDFHKLQCVWQTWQHYQYCNSSCTR (also: bicyclic or more (positions not given here)) [PCSK9dCRD AVR9 69] |  |  | 23.5 | 2.51 |  | 
45 | AFDCLGQCGRCDFHKLQCVHSNRNSFYCNSSCTR (disulfide (positions not given here)) [AVR9 7] | 43.6 | 3.23 |  |  |  | 
46 | GCKLMRQRCKQDSDCLAGCVCTQQWWCG (disulfide (positions not given here)) [N2N-EET-94] | 36.3 | 3.52 |  |  |  | 
47 | AFDCLGQCGRCDFHKLQCVYTSWESYQYCNSSCTR (also: bicyclic or more (positions not given here)) [PCSK9dCRD AVR9 16] |  |  | 19.6 | 1.80 |  | 
48 | AFDCLGQCGRCDFHKLQCVYESYAHYQYCNSSCTR (also: bicyclic or more (positions not given here)) [PCSK9dCRD AVR9 54] |  |  | 23.7 | 1.59 |  | 
49 | AFDCLGQCGRCDFHKLQCVLVEPSGWYQVISWKYCNSSCTR (also: bicyclic or more (positions not given here)) [Fz7CRD-Fc AVR9 2] |  |  |  |  | 5.0 | 0.29

Source: publication PMC10977697 (PLOS ONE, 2024)
